The test system of this assay is 20 Helicobacter pylori strains. Description: MIC by agar dilution method. The assay is classed as cell-based. (In general: Agar dilution tests growth on a series of plates holding different concentrations.)

These results are taken from patent publication US20100298244A1, “COMPOSITION FOR THE PREVENTION AND THE TREATMENT OF HELICOBACTER PYLORI INFECTION” (NATIONAL TAIWAN UNIVERSITY, priority 2009, published 2010).

SMILES strings stand for the structures. Some results are limits rather than exact numbers.

For orientation: MIC means the smallest concentration in the dilution series that meets the test's criterion for growth inhibition. Broadly, the MIC90 is the lowest concentration that inhibits either 90% of growth or 90% of the strains tested, depending on the study. With `CC(=O)N[C@H]1[C@H]([C@H](O)[C@H](O)CO)OC(O)(C(=O)O)C[C@@H]1O` (stereo partly shown) [Sialic acid, N-Acetylneuraminic acid], the “MIC Range” value (20 H. pylori strains (10 resistant to metronidazole and clarithromycin, 10 sensitive)) is more than 4000 µg/mL. The MIC (Helicobacter pylori, 20 H. pylori strains, read-out: MIC For 50% of strains) was more than 4000 µg/mL. The MIC90 (Helicobacter pylori, 20 H. pylori strains, read-out: MIC For 90% of strains (MIC90)) was more than 4000 µg/mL. Besides, under “alone”, the “inhibitory activity against Helicobacter pylori” value is listed as “did not show any inhibitory activity”.
